Consider 1 molecule from ChEMBL document CHEMBL5126502, “Promising applications of steroid сonjugates for cancer research and treatment” (Eur J Med Chem, 2021).

This data set can be described thus: Cytotoxicity against human MCF7 cells incubated for 48 hrs by MTT assay. It counts as toxicity, cell-based. (Tetrazolium assays rely on reduction of a dye to a coloured formazan, in cell work by metabolically active cells.)

`C[C@@H]1CC[C@@]2(OC1)O[C@H]1C[C@H]3[C@@H]4CC[C@H]5C[C@@H](OC(=O)[C@@H](N)CO)CC[C@]5(C)[C@H]4CC[C@]3(C)[C@H]1[C@@H]2C`: the IC50 at 48 h came to 1500 nM.

Usually IC50 stands for the concentration that inhibits the measured activity by half. Higher therefore signals a need for much substance.
